Data on 23 compounds can be found in patent US12371428B2 (Exelixis, Inc., priority 2019, dated 2025).

Test [1] addresses Human MET (residues 956-1390) (Homo sapiens (Human), UniProt P08581). Briefly: Human Met kinase assay, HTRF KinEase (Example D-2). Type of test: biochemical. The settings on record: protocol of Example D-2 (other compounds); read-out: c-Met IC50. The procedure, abridged: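 IC50 values come from a 4-parameter logistic fit of the […] fluorescence ratio, set between DMSO (100%) and reference compound at 1 μM (0%). Reactions held MET 956-1390 at 0.1 ng/well, ATP at Km, biotinylated peptide, 5 mM MgCl2, 1 mM MnCl2, 1 mM DTT and 3% DMSO, and ran 40 min at room temperature before streptavidin-XL665/Eu-antibody detection.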

Test [2] addresses Mer (phospho-Mer, MERTK-transfected 293A cells) (Homo sapiens (Human), UniProt Q12866). Briefly: Mer autophosphorylation ELISA in transient transfected 293A cells (Example H). Type of test: cell-based. The note with it: cellular activity; Mer autophosphorylation ELISA in transient transfected 293A cells. In a few lines: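 IC50 from 4-parameter logistic fit of phospho-Mer levels, quantified by ELISA against a phospho-Mer standard in lysates of MERTK-transfected 293A cells. Cells exposed 1 h to 8-point serial dilutions, serum-free, 0.3% DMSO; controls: DMSO (100%) and reference inhibitor (0%).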

Each structure is given as a SMILES string. Structures can show the parent of a compound that is named as a salt.

Chain of Mer (phospho-Mer, MERTK-transfected 293A cells) (Q12866 21-999): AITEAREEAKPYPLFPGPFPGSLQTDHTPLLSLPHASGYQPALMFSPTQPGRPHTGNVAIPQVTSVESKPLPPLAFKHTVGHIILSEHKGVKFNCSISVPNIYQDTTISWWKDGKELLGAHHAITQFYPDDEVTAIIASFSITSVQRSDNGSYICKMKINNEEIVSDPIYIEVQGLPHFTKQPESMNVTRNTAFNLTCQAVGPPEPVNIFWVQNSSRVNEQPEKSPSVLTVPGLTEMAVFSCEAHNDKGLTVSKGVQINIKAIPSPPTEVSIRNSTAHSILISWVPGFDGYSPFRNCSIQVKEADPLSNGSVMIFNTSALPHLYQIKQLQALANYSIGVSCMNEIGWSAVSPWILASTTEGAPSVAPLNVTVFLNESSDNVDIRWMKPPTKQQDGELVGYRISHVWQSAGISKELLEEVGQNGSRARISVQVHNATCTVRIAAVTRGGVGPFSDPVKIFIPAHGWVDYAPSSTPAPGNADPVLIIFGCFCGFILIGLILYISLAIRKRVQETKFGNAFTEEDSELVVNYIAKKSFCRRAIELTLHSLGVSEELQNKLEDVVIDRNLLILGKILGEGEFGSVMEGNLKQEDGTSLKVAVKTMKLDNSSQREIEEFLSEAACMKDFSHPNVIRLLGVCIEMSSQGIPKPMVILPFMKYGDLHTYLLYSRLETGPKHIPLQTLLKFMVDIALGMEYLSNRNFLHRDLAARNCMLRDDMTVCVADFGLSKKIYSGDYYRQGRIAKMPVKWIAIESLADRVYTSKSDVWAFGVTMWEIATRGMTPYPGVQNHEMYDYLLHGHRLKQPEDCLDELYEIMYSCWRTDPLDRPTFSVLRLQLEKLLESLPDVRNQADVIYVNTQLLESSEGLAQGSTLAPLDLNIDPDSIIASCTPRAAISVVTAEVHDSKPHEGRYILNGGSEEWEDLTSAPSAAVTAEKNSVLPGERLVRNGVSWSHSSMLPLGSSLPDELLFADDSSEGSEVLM
Chain of Human MET (residues 956-1390) (P08581 956-1390): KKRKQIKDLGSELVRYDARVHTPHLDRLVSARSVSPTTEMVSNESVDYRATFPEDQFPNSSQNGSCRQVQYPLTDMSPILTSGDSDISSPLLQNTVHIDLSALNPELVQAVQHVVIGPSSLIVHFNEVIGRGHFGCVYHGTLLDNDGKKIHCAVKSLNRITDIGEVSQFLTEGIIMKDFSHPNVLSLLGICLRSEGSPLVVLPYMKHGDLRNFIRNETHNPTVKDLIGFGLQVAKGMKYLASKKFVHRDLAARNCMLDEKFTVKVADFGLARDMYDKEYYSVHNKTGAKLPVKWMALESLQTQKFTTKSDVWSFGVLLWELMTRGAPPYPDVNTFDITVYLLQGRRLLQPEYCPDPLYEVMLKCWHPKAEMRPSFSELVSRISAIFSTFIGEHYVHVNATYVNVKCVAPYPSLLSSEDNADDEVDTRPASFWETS

As to `COc1ccc2nccc(Oc3ccc(NC(=O)c4cnc(C)n(-c5ccc(F)cc5)c4=O)cc3F)c2n1` [Compound 232, N-[3-Fluoro-4-[(6-methoxy-1,5-naphthyridin-4-yl)oxy]phenyl]-1-(4-fluorophenyl)-2-methyl-6-oxopyrimidine-5-carboxamide], the IC50 in test [1] and in test [2] was < 0.1 µM each time.
For `CCc1nc(C)c(-c2ccc(F)cc2)c(O)c1C(=O)Nc1ccc(Oc2ccnc3cc(OC)c(OC)nc23)cc1` [Compound 197, N-[4-[(6,7-Dimethoxy-1,5-naphthyridin-4-yl)oxy]phenyl]-2-ethyl-5-(4-fluorophenyl)-4-hydroxy-6-methylpyridine-3-carboxamide], the IC50 in test [1] and in test [2] was < 0.1 µM each time.
As to `COc1cnc2c(Oc3ccc(NC(=O)c4cnc(CO)c(-c5ccc(F)cc5)c4O)cc3F)ccnc2c1` [Compound 217, N-[3-Fluoro-4-[(7-methoxy-1,5-naphthyridin-4-yl)oxy]phenyl]-5-(4-fluorophenyl)-4-hydroxy-6-(hydroxymethyl)pyridine-3-carboxamide], the IC50 in test [1] and in test [2] was < 0.1 µM each time.
For `COCc1nc(C)c(-c2ccc(F)cc2)c(O)c1C(=O)Nc1ccc(Oc2ccnc3cc(OC)cnc23)cc1` [Compound 185, 5-(4-Fluorophenyl)-4-hydroxy-2-(methoxymethyl)-N-[4-[(7-methoxy-1,5-naphthyridin-4-yl)oxy]phenyl]-6-methylpyridine-3-carboxamide], the IC50 in test [1] and in test [2] was < 0.1 µM throughout.
For the compound `COc1cnc2c(Oc3ccc(NC(=O)c4nnc(C)c(-c5ccc(F)cc5C)c4O)cc3F)ccnc2c1` (single isomer, unassigned) [Compound 249C, N-[3-Fluoro-4-[(7-methoxy-1,5-naphthyridin-4-yl)oxy]phenyl]-5-(4-fluoro-2-methylphenyl)-4-hydroxy-6-methylpyridazine-3-carboxamide], the IC50 in test [1] and in test [2] was < 0.1 µM in each case.
Take `COCCOc1nc2c(Oc3ccc(NC(=O)c4c(COC)nc(C)c(-c5ccc(F)cc5C)c4O)cc3F)ccnc2cc1OC` [Compound 201, N-[3-Fluoro-4-[[7-methoxy-6-(2-methoxyethoxy)-1,5-naphthyridin-4-yl]oxy]phenyl]-5-(4-fluoro-2-methylphenyl)-4-hydroxy-2-(methoxymethyl)-6-methylpyridine-3-carboxamide]: the IC50 in test [1] and in test [2] was < 0.1 µM in each case.
In the case of `CCc1nc(C)c(-c2ccc(F)cc2C)c(O)c1C(=O)Nc1ccc(Oc2ccnc3cc(OC)c(OC)nc23)c(F)c1` [Compound 202, N-[4-[(6,7-Dimethoxy-1,5-naphthyridin-4-yl)oxy]-3-fluorophenyl]-2-ethyl-5-(4-fluoro-2-methylphenyl)-4-hydroxy-6-methylpyridine-3-carboxamide], the IC50 was 0.1 to 0.3 µM in test [1] and < 0.1 µM in test [2].
The corresponding values for `COc1cc2nccc(Oc3ccc(NC(=O)c4ccc(C)n(-c5ccc(F)cc5C)c4=O)cc3)c2nc1OC` [Compound 225, N-[4-[(6,7-Dimethoxy-1,5-naphthyridin-4-yl)oxy]phenyl]-1-(4-fluoro-2-methylphenyl)-6-methyl-2-oxopyridine-3-carboxamide] are < 0.1 µM and < 0.1 µM.
For `COc1cnc2c(Oc3ccc(NC(=O)c4nnc(C)c(-c5ccc(F)cc5C)c4O)cc3F)ccnc2c1` (single isomer, unassigned) [Compound 249B, N-[3-Fluoro-4-[(7-methoxy-1,5-naphthyridin-4-yl)oxy]phenyl]-5-(4-fluoro-2-methylphenyl)-4-hydroxy-6-methylpyridazine-3-carboxamide], in that order: < 0.1 µM and < 0.1 µM.
The corresponding values for `COc1cnc2c(Oc3ccc(NC(=O)c4n[nH]c(C)c(-c5ccc(F)cc5C)c4=O)cc3)ccnc2c1` [Compound 248, 5-(4-Fluoro-2-methylphenyl)-N-[4-[(7-methoxy-1,5-naphthyridin-4-yl)oxy]phenyl]-6-methyl-4-oxo-1H-pyridazine-3-carboxamide] are < 0.1 µM and < 0.1 µM.
With `COc1cc2nccc(Oc3ccc(NC(=O)c4cn(C(C)C)c(C)c(-c5ccc(F)cc5C)c4=O)cc3F)c2nc1OC` [Compound 32, N-[4-[(6,7-Dimethoxy-1,5-naphthyridin-4-yl)oxy]-3-fluorophenyl]-5-(4-fluoro-2-methylphenyl)-6-methyl-4-oxo-1-propan-2-ylpyridine-3-carboxamide hydrochloride], the IC50 in test [1] and in test [2] was < 0.1 µM in each case.
As for `COc1cnc2c(Oc3ccc(NC(=O)c4nn(C)c(C)c(-c5ccc(F)cc5)c4=O)cc3F)ccnc2c1` [Compound 250, N-[3-Fluoro-4-[(7-methoxy-1,5-naphthyridin-4-yl)oxy]phenyl]-5-(4-fluorophenyl)-1,6-dimethyl-4-oxopyridazine-3-carboxamide], the IC50 in test [1] and in test [2] was < 0.1 µM each time.
Regarding `COc1cnc2c(Oc3ccc(NC(=O)c4cnc(C)c(-c5ccc(F)cc5C)c4O)cc3)ccnc2c1` [Compound 176, 5-(4-Fluoro-2-methylphenyl)-4-hydroxy-N-[4-[(7-methoxy-1,5-naphthyridin-4-yl)oxy]phenyl]-6-methylpyridine-3-carboxamide], the IC50 in test [1] and in test [2] was < 0.1 µM in each case.
With `CCc1nc(C)c(-c2ccc(F)cc2)c(O)c1C(=O)Nc1ccc(Oc2ccnc3ccc(OC)nc23)c(F)c1` [Compound 182, 2-Ethyl-N-[3-fluoro-4-[(6-methoxy-1,5-naphthyridin-4-yl)oxy]phenyl]-5-(4-fluorophenyl)-4-hydroxy-6-methylpyridine-3-carboxamide], the IC50 in test [1] and in test [2] was < 0.1 µM in each case.
Consider `COCc1nc(C)c(-c2ccc(F)cc2)c(O)c1C(=O)Nc1ccc(Oc2ccnc3cc(OC)c(OC)nc23)c(F)c1` [Compound 184, N-[4-[(6,7-Dimethoxy-1,5-naphthyridin-4-yl)oxy]-3-fluorophenyl]-5-(4-fluorophenyl)-4-hydroxy-2-(methoxymethyl)-6-methylpyridine-3-carboxamide], for which the IC50 in test [1] and in test [2] was < 0.1 µM each time.
With `COc1cc2nccc(Oc3ccc(NC(=O)c4ccc(C)n(-c5ccc(F)cc5C)c4=O)cc3F)c2nc1OC` [Compound 219, N-[4-[(6,7-Dimethoxy-1,5-naphthyridin-4-yl)oxy]-3-fluorophenyl]-1-(4-fluoro-2-methylphenyl)-6-methyl-2-oxopyridine-3-carboxamide], the IC50 in test [1] and in test [2] was < 0.1 µM in each case.
Regarding `COc1cc2nccc(Oc3ccc(NC(=O)c4c(C)ncc(-c5ccc(F)cc5)c4O)cc3)c2nc1OC` [Compound 235, N-[4-[(6,7-Dimethoxy-1,5-naphthyridin-4-yl)oxy]phenyl]-5-(4-fluorophenyl)-4-hydroxy-2-methylpyridine-3-carboxamide], the IC50 in test [1] and in test [2] was < 0.1 µM throughout.
For the compound `COc1cnc2c(Oc3ccc(NC(=O)c4n[nH]c(C)c(-c5ccc(F)cc5)c4=O)cc3)ccnc2c1` [Compound 245, 5-(4-Fluorophenyl)-N-[4-[(7-methoxy-1,5-naphthyridin-4-yl)oxy]phenyl]-6-methyl-4-oxo-1H-pyridazine-3-carboxamide], the IC50 in test [1] and in test [2] was < 0.1 µM in each case.
Take `COc1cnc2c(Oc3ccc(NC(=O)c4cnc(CO)c(-c5ccc(F)cc5)c4O)cc3)ccnc2c1` [Compound 218, 5-(4-Fluorophenyl)-4-hydroxy-6-(hydroxymethyl)-N-[4-[(7-methoxy-1,5-naphthyridin-4-yl)oxy]phenyl]pyridine-3-carboxamide]: the IC50 in test [1] and in test [2] was < 0.1 µM each time.
As for `COc1cc2nccc(Oc3ccc(NC(=O)c4cn(C)cc(-c5cccc(F)c5)c4=O)cc3F)c2nc1OC` [Compound 35, N-[4-[(6,7-Dimethoxy-1,5-naphthyridin-4-yl)oxy]-3-fluorophenyl]-5-(3-fluorophenyl)-1-methyl-4-oxopyridine-3-carboxamide hydrochloride], the IC50 in test [1] and in test [2] was < 0.1 µM each time.
As to `CCc1nc(C)c(-c2ccc(F)cc2C)c(O)c1C(=O)Nc1ccc(Oc2ccnc3cc(OC)c(OC)nc23)cc1` [Compound 203, N-[4-[(6,7-Dimethoxy-1,5-naphthyridin-4-yl)oxy]phenyl]-2-ethyl-5-(4-fluoro-2-methylphenyl)-4-hydroxy-6-methylpyridine-3-carboxamide], the results for the IC50 in test [1] and in test [2] were 0.1 to 0.3 µM and < 0.1 µM, respectively.
As for `CCc1nc(C)c(-c2ccc(F)cc2)c(O)c1C(=O)Nc1ccc(Oc2ccnc3cc(OC)cnc23)c(F)c1` [Compound 180, 2-Ethyl-N-[3-fluoro-4-[(7-methoxy-1,5-naphthyridin-4-yl)oxy]phenyl]-5-(4-fluorophenyl)-4-hydroxy-6-methylpyridine-3-carboxamide], the IC50 in test [1] and in test [2] was < 0.1 µM each time.
For the compound `COCc1nc(C)c(-c2ccc(F)cc2C)c(O)c1C(=O)Nc1ccc(Oc2ccnc3cc(OC)c(OC)nc23)cc1` [Compound 192, N-[4-[(6,7-Dimethoxy-1,5-naphthyridin-4-yl)oxy]phenyl]-5-(4-fluoro-2-methylphenyl)-4-hydroxy-2-(methoxymethyl)-6-methylpyridine-3-carboxamide], the IC50 in test [1] and in test [2] was < 0.1 µM throughout.
